Data taken from ChEMBL document CHEMBL4842340, “Development of Cagrilintide, a Long-Acting Amylin Analogue” (J Med Chem, 2021).
Converted amounts (≈) assume the structure as drawn. *1 amine or outer side, *2 acyl side, *3 side chain or, on linkers, in order; H or OH if unused. Where a SMILES comes first, the peptide text is derived from it. Bridges are numbered along the chain shown (N, C = ends). [ ]: non-standard residue; d: D form. The star is where a group is joined. C20 diacid = O=C(O)CCCCCCCCCCCCCCCCCCC(=O)*; γGlu = O=C(O)[C@H](CCC(=O)[*:2])N[*:1]; AEEA = NCCOCCOCC(=O)O

Legend:
[1] = organism: Rattus norvegicus; assay: Ratio of EC50 for rat calcitonin receptor expressed in BHK-13 cells to EC50 for rat AMY3R (CT+RAMP3) expressed in tk-ts13 cells; assay type: cell-based
[2] = organism: Homo sapiens; assay: Ratio of EC50 for human calcitonin receptor expressed in BHK570 cells to EC50 for human AMY3R (CT+RAMP3) expressed in Hollex1 cells; assay type: cell-based
[3] = Solubility of the compound in bis-tris propane at pH 8 by UPLC analysis; assay type: physicochemical; conditions: bis-tris propane buffer
[4] = Displacement of [125I]-amylin from rat AMY3R (CTR+RAMP3) expressed in BHK-13 cells measured after 120 mins by scintillation proximity assay; assay type: cell-based
[5] = organism: Homo sapiens; assay: Ratio of IC50 for displacement of [125I]-calcitonin from human calcitonin receptor expressed in tk-ts 13 cells to IC50 for displacement of [125I]-amylin from human AMY3R (CTR+RAMP3) expressed in BHK-13 cells; assay type: cell-based
[6] = Agonist activity at human calcitonin receptor expressed in BHK570 cells assessed as increase in intracellular cAMP concentration incubated for 3 hrs in absence of albumin by CRE luciferase reporter gene assay; assay type: cell-based; conditions: BHK570, 3 h
[7] = Solubility of the compound in bis-tris propane at pH 7.5 by UPLC analysis; assay type: physicochemical; conditions: bis-tris propane buffer
[8] = Agonist activity at human AMY3R (CT+RAMP3) expressed in Hollex1 cells incubated for 3 hrs by luminescence assay; assay type: cell-based; conditions: Hollex1, 3 h
[9] = organism: Rattus norvegicus; assay: Ratio of IC50 for displacement of [125I]-calcitonin from rat calcitonin receptor expressed in tk-ts 13 cells to IC50 for displacement of [125I]-amylin from rat AMY3R (CTR+RAMP3) expressed in BHK-13 cells; assay type: cell-based
[10] = Agonist activity at rat AMY3R (CT+RAMP3) expressed in tk-ts13 cells assessed as increase in intracellular cAMP level incuabted for 25 mins by CRE luciferase reporter gene assay; assay type: cell-based; conditions: tk-ts13, 25 min
[11] = Solubility of the compound in bis-tris propane at pH 6 by UPLC analysis; assay type: physicochemical; conditions: bis-tris propane buffer
[12] = Solubility of the compound in lactate at pH 4 by UPLC analysis; assay type: physicochemical; conditions: lactate buffer
[13] = target: Insulin (Homo sapiens) (UniProt P01308); assay: Effect on insulin (unknown origin) amyloid fibril formation assessed as peptide recovery in glycyl-glycine buffer at pH 4 measured after 45 hrs by thioflavin-T fluorescence assay relative to control; set-up: concentration or dose not given beside the values
[14] = Displacement of [125I]-amylin from human AMY3R (CTR+RAMP3) expressed in BHK-13 cells measured after 120 mins by scintillation proximity assay; assay type: cell-based
[15] = system: Rattus norvegicus; assay: Reduction in food intake in Sprague-Dawley rat at 3 nmol/kg, sc administered as single dose measured after 24 to 48 hrs relative to control; assay type: functional; set-up: scale not given: the % may be the effect or the level left; conditions: time 24-48 hrs
[16] = Solubility of the compound in lactate at pH 3 by UPLC analysis; assay type: physicochemical; conditions: lactate buffer
[17] = Displacement of [125I]-calcitonin from human calcitonin receptor expressed in tk-ts 13 cells measured after 120 mins by scintillation proximity assay; assay type: cell-based; conditions: tk-ts13
[18] = Agonist activity at rat calcitonin receptor expressed in BHK-13 cells assessed as increase in intracellular cAMP concentration incubated for 25 mins by CRE luciferase reporter gene assay; assay type: cell-based; conditions: BHK-13, 25 min
[19] = target: Insulin (Homo sapiens) (UniProt P01308); assay: Effect on insulin (unknown origin) amyloid fibril formation assessed as lag time in glycyl-glycine buffer at pH 4 measured after 45 hrs by thioflavin-T fluorescence assay
[20] = Displacement of [125I]-calcitonin from rat calcitonin receptor expressed in tk-ts 13 cells measured after 120 mins by scintillation proximity assay; assay type: cell-based; conditions: tk-ts13
[21] = Solubility of the compound in lactate at pH 5 by UPLC analysis; assay type: physicochemical; conditions: lactate buffer
[22] = system: Rattus norvegicus; assay: Reduction in food intake in Sprague-Dawley rat at 3 nmol/kg, sc administered as single dose measured upto 24 hrs relative to control; assay type: functional; set-up: scale not given: the % may be the effect or the level left; conditions: time hrs <=24
[23] = Solubility of the compound in bis-tris propane at pH 6.5 by UPLC analysis; assay type: physicochemical; conditions: bis-tris propane buffer
[24] = Solubility of the compound in bis-tris propane at pH 7 by UPLC analysis; assay type: physicochemical; conditions: bis-tris propane buffer

Sequence of Insulin (Homo sapiens) (P01308 whole entry): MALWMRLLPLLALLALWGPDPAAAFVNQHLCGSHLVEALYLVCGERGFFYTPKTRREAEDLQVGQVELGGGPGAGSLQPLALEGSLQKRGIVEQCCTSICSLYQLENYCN

Row | SMILES | Ratio EC50 [1] | Ratio EC50 [2] | solubility [3] | IC50 [4] | Ratio IC50 [5] | EC50 [6] | solubility [7] | EC50 [8] | Ratio IC50 [9] | solubility [11] | solubility [12] | Activity [13] | IC50 [14] | Activity [15] | solubility [16] | IC50 [17] | TIME [19] | IC50 [20] | solubility [21] | Activity [22] | other results
1 | CC[C@H](C)[C@H](NC(=O)[C@@H]1CCCN1C(=O)CNC(=O)[C@H](Cc1ccccc1)NC(=O)[C@H](CC(N)=O)NC(=O)[C@H](CC(N)=O)NC(=O)[C@H](CO)NC(=O)[C@H](CO)NC(=O)[C@H](CCCNC(=N)N)NC(=O)[C@H](Cc1cnc[nH]1)NC(=O)[C@H](CC(C)C)NC(=O)[C@H](Cc1ccccc1)NC(=O)[C@H](CCC(=O)O)NC(=O)[C@H](C)NC(=O)[C@H](CC(C)C)NC(=O)[C@H](CCCNC(=N)N)NC(=O)[C@H](CCC(N)=O)NC(=O)[C@@H](NC(=O)[C@H](C)NC(=O)[C@@H]1CSSC[C@H](NC(=O)[C@H](CCCCN)NC(=O)[C@@H](CCCNC(=N)N)NC(=O)[C@@H](CCCNC(=N)N)NC(=O)COCCOCCNC(=O)COCCOCCNC(=O)CC[C@H](NC(=O)CCCCCCCCCCCCCCCCCCC(=O)O)C(=O)O)C(=O)N[C@@H](CC(N)=O)C(=O)N[C@@H]([C@@H](C)O)C(=O)N[C@@H](C)C(=O)N[C@@H]([C@@H](C)O)C(=O)N1)[C@@H](C)O)C(=O)N[C@@H](CC(C)C)C(=O)N1CCC[C@H]1C(=O)N1CCC[C@H]1C(=O)N[C@H](C(=O)N[C@@H](CC(N)=O)C(=O)N[C@H](C(=O)NCC(=O)N[C@@H](CO)C(=O)N[C@@H](CC(N)=O)C(=O)N[C@H](C(=O)N[C@@H](Cc1ccc(O)cc1)C(N)=O)[C@@H](C)O)C(C)C)[C@@H](C)O ({C20 diacid-γGlu-AEEA-AEEA}-[dR][dR]KCNTATCATQRLAEFLHRSSNNFGPILPPTNVGSNTY-NH2; disulfide 4-9) | 14 | 8 | 200 µM (≈ 1020 µg/mL) | 0.03 nM | 2 | 0.608 nM | 200 µM (≈ 1020 µg/mL) | 0.078 nM | 5 | 200 µM (≈ 1020 µg/mL) | 200 µM (≈ 1020 µg/mL) | 87% | 0.052 nM | 0% | 200 µM (≈ 1020 µg/mL) | 0.085 nM | 45 h | 0.156 nM | 200 µM (≈ 1020 µg/mL) | 24% | EC50 [10]: 0.132 nM; EC50 [18]: 1.89 nM
2 | CC[C@H](C)[C@H](NC(=O)[C@@H]1CCCN1C(=O)CNC(=O)[C@H](Cc1ccccc1)NC(=O)[C@H](CC(N)=O)NC(=O)[C@H](CC(N)=O)NC(=O)[C@H](CO)NC(=O)[C@H](CO)NC(=O)[C@H](Cc1cnc[nH]1)NC(=O)[C@H](Cc1cnc[nH]1)NC(=O)[C@H](CC(C)C)NC(=O)[C@H](Cc1ccccc1)NC(=O)[C@H](CCC(=O)O)NC(=O)[C@H](C)NC(=O)[C@H](CC(C)C)NC(=O)[C@H](CCCNC(=N)N)NC(=O)[C@H](CCC(N)=O)NC(=O)[C@@H](NC(=O)[C@H](C)NC(=O)[C@@H]1CSSC[C@H](NC(=O)CC[C@H](NC(=O)CCCCCCCCCCCCCCCCCCC(=O)O)C(=O)O)C(=O)N[C@@H](CC(N)=O)C(=O)N[C@@H]([C@@H](C)O)C(=O)N[C@@H](C)C(=O)N[C@@H]([C@@H](C)O)C(=O)N1)[C@@H](C)O)C(=O)N[C@@H](CC(C)C)C(=O)N1CCC[C@H]1C(=O)N1CCC[C@H]1C(=O)N[C@H](C(=O)N[C@@H](CC(N)=O)C(=O)N[C@H](C(=O)NCC(=O)N[C@@H](CO)C(=O)N[C@@H](CC(N)=O)C(=O)N[C@H](C(=O)N[C@@H](Cc1ccc(O)cc1)C(N)=O)[C@@H](C)O)C(C)C)[C@@H](C)O ({C20 diacid-γGlu}-CNTATCATQRLAEFLHHSSNNFGPILPPTNVGSNTY-NH2; disulfide 1-6) | – | 1 | 200 µM (≈ 866 µg/mL) | 0.182 nM | 0.3 | 0.117 nM | 200 µM (≈ 866 µg/mL) | 0.125 nM | 5 | 200 µM (≈ 866 µg/mL) | 200 µM (≈ 866 µg/mL) | 0% | 1.35 nM | 36% | 200 µM (≈ 866 µg/mL) | 0.469 nM | 9 h | 0.93 nM | 200 µM (≈ 866 µg/mL) | 39% | solubility [23]: 200 µM (≈ 866 µg/mL); solubility [24]: 200 µM (≈ 866 µg/mL)
3 | CC[C@H](C)[C@H](NC(=O)[C@@H]1CCCN1C(=O)CNC(=O)[C@H](Cc1ccccc1)NC(=O)[C@H](CC(N)=O)NC(=O)[C@H](CC(N)=O)NC(=O)[C@H](CO)NC(=O)[C@H](CO)NC(=O)[C@H](CCCNC(=N)N)NC(=O)[C@@H](NC(=O)[C@H](CC(C)C)NC(=O)[C@H](Cc1ccccc1)NC(=O)[C@H](CCC(=O)O)NC(=O)[C@H](C)NC(=O)[C@H](CC(C)C)NC(=O)[C@H](CCCNC(=N)N)NC(=O)[C@H](CCC(N)=O)NC(=O)[C@@H](NC(=O)[C@H](C)NC(=O)[C@@H]1CSSC[C@H](NC(=O)[C@H](Cc2cnc[nH]2)NC(=O)CC[C@H](NC(=O)CCCCCCCCCCCCCCCCCCC(=O)O)C(=O)O)C(=O)N[C@@H](CC(N)=O)C(=O)N[C@@H]([C@@H](C)O)C(=O)N[C@@H](C)C(=O)N[C@@H]([C@@H](C)O)C(=O)N1)[C@@H](C)O)C(C)C)C(=O)N[C@@H](CC(C)C)C(=O)N1CCC[C@H]1C(=O)N1CCC[C@H]1C(=O)N[C@H](C(=O)N[C@@H](CC(N)=O)C(=O)N[C@H](C(=O)NCC(=O)N[C@@H](CO)C(=O)N[C@@H](CC(N)=O)C(=O)N[C@H](C(=O)N[C@@H](Cc1ccc(O)cc1)C(N)=O)[C@@H](C)O)C(C)C)[C@@H](C)O ({C20 diacid-γGlu}-HCNTATCATQRLAEFLVRSSNNFGPILPPTNVGSNTY-NH2; disulfide 2-7) | – | 2 | – | 0.027 nM | 7 | 0.125 nM | – | 0.083 nM | 30 | 1 µM (≈ 4.45 µg/mL) | 200 µM (≈ 889 µg/mL) | 2% | 0.499 nM | 59% | 200 µM (≈ 889 µg/mL) | 3.25 nM | 5 h | 0.807 nM | 10 µM (≈ 44.5 µg/mL) | 56% | solubility [23]: 1 µM (≈ 4.45 µg/mL); solubility [24]: 10 µM (≈ 44.5 µg/mL)
4 | CC[C@H](C)[C@H](NC(=O)[C@@H]1CCCN1C(=O)CNC(=O)[C@H](Cc1ccccc1)NC(=O)[C@H](CC(N)=O)NC(=O)[C@H](CC(N)=O)NC(=O)[C@H](CO)NC(=O)[C@H](CO)NC(=O)[C@H](Cc1cnc[nH]1)NC(=O)[C@H](Cc1cnc[nH]1)NC(=O)[C@H](CC(C)C)NC(=O)[C@H](Cc1ccccc1)NC(=O)[C@H](CCC(=O)O)NC(=O)[C@H](C)NC(=O)[C@H](CC(C)C)NC(=O)[C@H](CCCNC(=N)N)NC(=O)[C@H](CCC(N)=O)NC(=O)[C@@H](NC(=O)[C@H](C)NC(=O)[C@@H]1CSSC[C@H](NC(=O)[C@H](Cc2cnc[nH]2)NC(=O)[C@H](Cc2cnc[nH]2)NC(=O)CC[C@H](NC(=O)CCCCCCCCCCCCCCCCCCC(=O)O)C(=O)O)C(=O)N[C@@H](CC(N)=O)C(=O)N[C@@H]([C@@H](C)O)C(=O)N[C@@H](C)C(=O)N[C@@H]([C@@H](C)O)C(=O)N1)[C@@H](C)O)C(=O)N[C@@H](CC(C)C)C(=O)N1CCC[C@H]1C(=O)N1CCC[C@H]1C(=O)N[C@H](C(=O)N[C@@H](CC(N)=O)C(=O)N[C@H](C(=O)NCC(=O)N[C@@H](CO)C(=O)N[C@@H](CC(N)=O)C(=O)N[C@H](C(=O)N[C@@H](Cc1ccc(O)cc1)C(N)=O)[C@@H](C)O)C(C)C)[C@@H](C)O ({C20 diacid-γGlu}-HHCNTATCATQRLAEFLHHSSNNFGPILPPTNVGSNTY-NH2; disulfide 3-8) | 2 | 2 | 200 µM (≈ 920 µg/mL) | 0.048 nM | 0.3 | 0.165 nM | 200 µM (≈ 920 µg/mL) | 0.102 nM | 5 | – | 200 µM (≈ 920 µg/mL) | 9% | 0.359 nM | 22% | 200 µM (≈ 920 µg/mL) | 0.111 nM | 30 h | 0.221 nM | 200 µM (≈ 920 µg/mL) | 40% | EC50 [10]: 0.147 nM; EC50 [18]: 0.221 nM
